{"source": "patent US20230276794A1", "about": "“MESH MATERIALS FOR CONTROLLED RELEASE OF ANTIVIRALS, METHOD AND USE” (priority 2020, published 2023)", "test_system": "Coronavirus (MHV-3 Strain)", "type": "cell-based, Coronavirus MHV-3 Strain genus Betacoronavirus", "details": "concentration of 5%"}
{"compound": "N=C(NCCCCCCNC(=N)NC(=N)Nc1ccc(Cl)cc1)NC(=N)Nc1ccc(Cl)cc1", "note": "[5% Chlorhexidine, 1,1′-hexamethylene-bis(5-(p-chlorophenyl)-biguanide)]", "values": [{"measurement": "time after which activity was lost", "value": 10, "unit": "min"}]}
